This note sets out measurements from patent US10722501B2 (BAYER AKTIENGESELLSCHAFT, priority 2016, dated 2020).

The structures appear in SMILES notation.

For the assay, the target named is T1, recombinant full-length human prolyl endopeptidase (PREP) (Homo sapiens, UniProt P48147).
T1 construct: To recombinant full-length human prolyl endopeptidase (PREP, R&D-Systems, 4308-SE); purchased R&D-Systems 4308-SE
T1 sequence (P48147 1-710): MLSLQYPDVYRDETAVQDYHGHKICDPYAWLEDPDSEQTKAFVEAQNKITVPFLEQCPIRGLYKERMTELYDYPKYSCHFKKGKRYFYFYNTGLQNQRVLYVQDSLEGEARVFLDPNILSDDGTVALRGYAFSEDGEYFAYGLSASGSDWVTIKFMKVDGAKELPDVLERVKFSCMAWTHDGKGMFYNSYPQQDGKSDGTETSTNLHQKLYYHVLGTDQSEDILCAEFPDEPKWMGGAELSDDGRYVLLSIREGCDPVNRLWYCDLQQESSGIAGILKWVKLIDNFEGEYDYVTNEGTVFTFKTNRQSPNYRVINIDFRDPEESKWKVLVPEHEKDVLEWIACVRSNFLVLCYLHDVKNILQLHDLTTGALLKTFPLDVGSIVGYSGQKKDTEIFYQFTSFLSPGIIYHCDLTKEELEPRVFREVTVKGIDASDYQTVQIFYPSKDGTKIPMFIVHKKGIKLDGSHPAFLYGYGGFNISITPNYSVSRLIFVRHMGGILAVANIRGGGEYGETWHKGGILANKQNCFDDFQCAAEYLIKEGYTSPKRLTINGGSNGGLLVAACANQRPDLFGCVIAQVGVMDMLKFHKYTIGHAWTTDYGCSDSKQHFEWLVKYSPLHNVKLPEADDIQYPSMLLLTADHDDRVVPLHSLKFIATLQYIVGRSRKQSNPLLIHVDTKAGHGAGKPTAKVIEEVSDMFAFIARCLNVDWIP
Description: Biochemical human prolyl endopeptidase (PREP) assay with fluorescently labelled substrate. The conditions noted are these: substrate Z-Gly-Pro-AMC 50 μM, 32° C., 60 min; some as mean values from multiple independent determinations. Put shortly: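 0.4 nM (final, example) recombinant PREP in pH 7.5 Tris buffer with EDTA, GSH, BSA and Brij-35; compounds at 1 nM to 30 μM. Reaction started with 50 μM Z-Gly-Pro-AMC and followed by fluorescence (ex 360/em 465 nm) at 32° C for 60 min. IC50 interpolated from percent activity based on initial slopes.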
By IC50 is commonly meant the concentration that gives 50% inhibition. In the case of `O=C([C@@H]1CCCc2nn(Cc3ncc(F)cc3F)c(=O)n21)N1CCC(F)(F)C1` [Example 412, (5S)-2-[(3,5-Difluoropyridin-2-yl)methyl]-5-[(3,3-difluoropyrrolidin-1-yl)carbonyl]-5,6,7,8-tetrahydro[1,2,4]triazolo[4,3-a]pyridin-3(2H)-one], the half-inhibitory concentration (IC50) was 3 nM.

Turning to `Cn1nc(Cn2nc3n(c2=O)[C@H](C(=O)N2CCC(F)(F)C2)CCC3)c2cccnc21` [Example 413, (5S)-5-[(3,3-Difluoropyrrolidin-1-yl)carbonyl]-2-[(1-methyl-1H-pyrazolo[3,4-b]pyridin-3-yl)methyl]-5,6,7,8-tetrahydro[1,2,4]triazolo[4,3-a]pyridin-3(2H)-one], the IC50 came out at 1.9 nM.

Turning to `Cn1nc(Cn2nc3n(c2=O)[C@H](C(=O)N2C[C@@H](F)[C@@H](F)C2)CCC3)c2cccnc21` [Example 414, (5S)-5-{[(3R,4S)-3,4-Difluoropyrrolidin-1-yl]carbonyl}-2-[(1-methyl-1H-pyrazolo[3,4-b]pyridin-3-yl)methyl]-5,6,7,8-tetrahydro[1,2,4]triazolo[4,3-a]pyridin-3(2H)-one], the IC50 was 0.79 nM.

In the case of `Cn1nc(Cn2nc3n(c2=O)[C@H](C(=O)N2CC(F)(F)C2)CCC3)c2cccnc21` [Example 415, (5S)-5-[(3,3-Difluoroazetidin-1-yl)carbonyl]-2-[(1-methyl-1H-pyrazolo[3,4-b]pyridin-3-yl)methyl]-5,6,7,8-tetrahydro[1,2,4]triazolo[4,3-a]pyridin-3(2H)-one], the IC50 was found to be 5.4 nM.

As to `O=C([C@@H]1CCCc2nn(Cc3cc4cccnc4nc3C(F)(F)F)c(=O)n21)N1CCC(F)(F)C1` [Example 418, (5S)-5-[(3,3-Difluoropyrrolidin-1-yl)carbonyl]-2-{[2-(trifluoromethyl)-1,8-naphthyridin-3-yl]methyl}-5,6,7,8-tetrahydro[1,2,4]triazolo[4,3-a]pyridin-3(2H)-one], the IC50 worked out at 2.24 nM.

Turning to `O=C([C@@H]1CCCc2nn(Cc3cc4cccnc4nc3C(F)(F)F)c(=O)n21)N1CC[C@H](F)C1` [Example 419, (5S)-5-{[(3S)-3-Fluoropyrrolidin-1-yl]carbonyl}-2-{[2-(trifluoromethyl)-1,8-naphthyridin-3-yl]methyl}-5,6,7,8-tetrahydro[1,2,4]triazolo[4,3-a]pyridin-3(2H)-one], the IC50 amounted to 0.88 nM.

With `O=C([C@@H]1CCCc2nn(Cc3cc4cccnc4nc3C(F)(F)F)c(=O)n21)N1CC(F)C1` [Example 420, (5S)-5-[(3-Fluoroazetidin-1-yl)carbonyl]-2-{[2-(trifluoromethyl)-1,8-naphthyridin-3-yl]methyl}-5,6,7,8-tetrahydro[1,2,4]triazolo[4,3-a]pyridin-3(2H)-one], the half-inhibitory concentration (IC50) worked out at 1.7 nM.

`O=C([C@@H]1CCCc2nn(Cc3ccc(Cl)nc3)c(=O)n21)N1CC(F)C1` [Example 421, (5S)-2-[(6-Chloropyridin-3-yl)methyl]-5-[(3-fluoroazetidin-1-yl)carbonyl]-5,6,7,8-tetrahydro[1,2,4]triazolo[4,3-a]pyridin-3(2H)-one]: the IC50 is 0.91 nM.

With `O=C([C@@H]1CCCc2nn(Cc3ccc(Cl)nc3)c(=O)n21)N1CC[C@H](F)C1` [Example 422, (5S)-2-[(6-Chloropyridin-3-yl)methyl]-5-{[(3S)-3-fluoropyrrolidin-1-yl]carbonyl}-5,6,7,8-tetrahydro[1,2,4]triazolo[4,3-a]pyridin-3(2H)-one], the IC50 worked out at 0.63 nM.

In the case of `O=C([C@@H]1CCCc2nn(Cc3ccc(Cl)nc3)c(=O)n21)N1CCC(F)(F)C1` [Example 423, (5S)-2-[(6-Chloropyridin-3-yl)methyl]-5-[(3,3-difluoropyrrolidin-1-yl)carbonyl]-5,6,7,8-tetrahydro[1,2,4]triazolo[4,3-a]pyridin-3(2H)-one], the IC50 worked out at 1.85 nM.

Turning to `O=C([C@@H]1CCCc2nn(Cc3ccc(Cl)nc3)c(=O)n21)N1C[C@@H](F)[C@@H](F)C1` [Example 424, (5S)-2-[(6-Chloropyridin-3-yl)methyl]-5-{[(3R,4S)-3,4-difluoropyrrolidin-1-yl]carbonyl}-5,6,7,8-tetrahydro[1,2,4]triazolo[4,3-a]pyridin-3(2H)-one], the IC50 is 0.38 nM.

With `O=C([C@@H]1CCCc2nn(Cc3ccc(C(F)(F)F)nc3)c(=O)n21)N1CC[C@H](O)C1` [Example 425, (5S)-5-{[(3S)-3-Hydroxypyrrolidin-1-yl]carbonyl}-2-{[6-(trifluoromethyl)pyridin-3-yl]methyl}-5,6,7,8-tetrahydro[1,2,4]triazolo[4,3-a]pyridin-3(2H)-one], the IC50 is 35 nM.

`O=C([C@@H]1CCCc2nn(Cc3ccc(C(F)(F)F)nc3)c(=O)n21)N1CCC(F)(F)C1` [Example 426, (5S)-5-[(3,3-Difluoropyrrolidin-1-yl)carbonyl]-2-{[6-(trifluoromethyl)pyridin-3-yl]methyl}-5,6,7,8-tetrahydro[1,2,4]triazolo[4,3-a]pyridin-3(2H)-one]: the IC50 stood at 6.93 nM.

For `O=C([C@@H]1CCCc2nn(Cc3ccc(C(F)(F)F)nc3)c(=O)n21)N1CC[C@H](F)C1` [Example 427, (5S)-5-{[(3S)-3-Fluoropyrrolidin-1-yl]carbonyl}-2-{[6-(trifluoromethyl)pyridin-3-yl]methyl}-5,6,7,8-tetrahydro[1,2,4]triazolo[4,3-a]pyridin-3(2H)-one], the IC50 was 1.1 nM.

For `O=C([C@@H]1CCCc2nn(Cc3ccc(C(F)(F)F)nc3)c(=O)n21)N1CC(O)C1` [Example 428, (5S)-5-[(3-Hydroxyazetidin-1-yl)carbonyl]-2-{[6-(trifluoromethyl)pyridin-3-yl]methyl}-5,6,7,8-tetrahydro[1,2,4]triazolo[4,3-a]pyridin-3(2H)-one], the IC50 was found to be 53 nM.

`O=C([C@@H]1CCCc2nn(Cc3ccc(C(F)(F)F)nc3)c(=O)n21)N1CC(F)C1` [Example 429, (5S)-5-[(3-Fluoroazetidin-1-yl)carbonyl]-2-{[6-(trifluoromethyl)pyridin-3-yl]methyl}-5,6,7,8-tetrahydro[1,2,4]triazolo[4,3-a]pyridin-3(2H)-one]: the IC50 turned out to be 3.7 nM.

For the compound `COc1ccc(Cn2nc3n(c2=O)[C@H](C(=O)N2CC[C@H](F)C2)CCC3)cn1` [Example 430, (5S)-5-{[(3S)-3-Fluoropyrrolidin-1-yl]carbonyl}-2-[(6-methoxypyridin-3-yl)methyl]-5,6,7,8-tetrahydro[1,2,4]triazolo[4,3-a]pyridin-3(2H)-one], the IC50 is 1.1 nM.

`COc1ccc(Cn2nc3n(c2=O)[C@H](C(=O)N2C[C@@H](F)[C@@H](F)C2)CCC3)cn1` [Example 431, (5S)-5-{[(3R,4S)-3,4-Difluoropyrrolidin-1-yl]carbonyl}-2-[(6-methoxypyridin-3-yl)methyl]-5,6,7,8-tetrahydro[1,2,4]triazolo[4,3-a]pyridin-3(2H)-one]: the IC50 was 0.995 nM.

As for `COc1ccc(Cn2nc3n(c2=O)[C@H](C(=O)N2CCC[C@H]2C#N)CCC3)cn1` [Example 432, (2S)-1-({(5S)-2-[(6-Methoxypyridin-3-yl)methyl]-3-oxo-2,3,5,6,7,8-hexahydro[1,2,4]triazolo[4,3-a]pyridin-5-yl}carbonyl)pyrrolidine-2-carbonitrile], the IC50 worked out at 0.13 nM.

In the case of `COc1ccc(Cn2nc3n(c2=O)[C@H](C(=O)N2CC(F)C2)CCC3)cn1` [Example 433, (5S)-5-[(3-Fluoroazetidin-1-yl)carbonyl]-2-[(6-methoxypyridin-3-yl)methyl]-5,6,7,8-tetrahydro[1,2,4]triazolo[4,3-a]pyridin-3(2H)-one], the IC50 stood at 3.1 nM.

Turning to `COc1ccc(Cn2nc3n(c2=O)[C@H](C(=O)N2CCC(F)(F)C2)CCC3)cn1` [Example 434, (5S)-5-[(3,3-Difluoropyrrolidin-1-yl)carbonyl]-2-[(6-methoxypyridin-3-yl)methyl]-5,6,7,8-tetrahydro[1,2,4]triazolo[4,3-a]pyridin-3(2H)-one], the IC50 is 2.4 nM.

As to `O=C([C@@H]1CCCc2nn(Cc3cncc(Cl)c3)c(=O)n21)N1CCC(F)(F)C1` [Example 435, (5S)-2-[(5-Chloropyridin-3-yl)methyl]-5-[(3,3-difluoropyrrolidin-1-yl)carbonyl]-5,6,7,8-tetrahydro[1,2,4]triazolo[4,3-a]pyridin-3(2H)-one], the IC50 was 2.65 nM.

Consider `O=C([C@@H]1CCCc2nn(Cc3cncc(Cl)c3)c(=O)n21)N1CC(F)C1` [Example 436, (5S)-2-[(5-Chloropyridin-3-yl)methyl]-5-[(3-fluoroazetidin-1-yl)carbonyl]-5,6,7,8-tetrahydro[1,2,4]triazolo[4,3-a]pyridin-3(2H)-one], for which the IC50 was found to be 4.7 nM.

On to `O=C([C@@H]1CCCc2nn(Cc3cncc(Cl)c3)c(=O)n21)N1CC(F)(F)C1` [Example 437, (5S)-2-[(5-Chloropyridin-3-yl)methyl]-5-[(3,3-difluoroazetidin-1-yl)carbonyl]-5,6,7,8-tetrahydro[1,2,4]triazolo[4,3-a]pyridin-3(2H)-one], for which the IC50 was found to be 7.1 nM.
